Test results published in PubChem BioAssay AID226 (DTP/NCI, 2004).
Where “and” joins values, the source holds several entries; their conditions need not be identical. Equal entries are not always repeated. Inconclusive results and toxic doses are left out.

System: B6C3F1 mice, intracerebral ependymoblastoma, median survival T/C
Test: NCI In Vivo Anticancer Drug Screen. Data for tumor model Ependymoblastoma (intracerebral) in B6C3F1 mice
Conditions: endpoint: median survival time, higher = longer survival
Experimental: The antitumor activity of compounds was measured in mice bearing transplantable tumors. Survival or tumor size were measured and the results are expressed as the measurement made in the treated group (T) divided by the measurement made in the vehicle treated control group (C). The tumor model used in this assay is Ependymoblastoma (intracerebral) in B6C3F1 mice

[1] = dose: 8.0 mg/kg/injection, schedule: Q01DX005 (ip), vehicle: Klucel (hydroxypropylcellulose) (HPC)
[2] = dose: 128.0 mg/kg/injection, schedule: Q01DX005 (ip), vehicle: saline

With `O=NN(CCCl)C(=O)NC1CCC(=O)NC1=O` (configuration not stated) the T/C (dose: 0.5 mg/kg/injection, schedule: Q01DX005 (ip), vehicle: Klucel (hydroxypropylcellulose) (HPC)) was 91 % of control, the T/C (dose: 0.5 mg/kg/injection, schedule: Q01DX005 (ip), vehicle: saline with Tween-80) was 109 % of control and the T/C (dose: 1.0 mg/kg/injection, schedule: Q01DX005 (ip), vehicle: Klucel (hydroxypropylcellulose) (HPC)) was 114 % of control. For the same compound, the T/C (dose: 1.0 mg/kg/injection, schedule: Q01DX005 (ip), vehicle: suspension in saline) was 124 % of control, the T/C (dose: 1.0 mg/kg/injection, schedule: Q01DX009 (ip), vehicle: saline with Tween-80) was 241 % of control and the T/C (dose: 2.0 mg/kg/injection, schedule: Q01DX005 (ip), vehicle: saline with Tween-80) was 238 % of control. For the same compound, the T/C (dose: 2.0 mg/kg/injection, schedule: Q01DX009 (ip), vehicle: saline with Tween-80) was 241 % of control, the T/C (dose: 2.59 mg/kg/injection, schedule: Q01DX005 (ip), vehicle: Klucel (hydroxypropylcellulose) (HPC)) was 309 % of control and the T/C (dose: 4.0 mg/kg/injection, schedule: Q01DX001 (ip), vehicle: saline + alcohol) was 154 % of control. For the same compound, the T/C (dose: 4.0 mg/kg/injection, schedule: Q01DX005 (ip), vehicle: Klucel (hydroxypropylcellulose) (HPC)) was 207 % of control, the T/C (dose: 4.0 mg/kg/injection, schedule: Q01DX005 (ip), vehicle: saline with Tween-80) was 396 % of control and the T/C (dose: 4.0 mg/kg/injection, schedule: Q01DX005 (ip), vehicle: suspension in saline) was 179 % of control and 236 % of control and 260 % of control. For the same compound, the T/C (dose: 4.32 mg/kg/injection, schedule: Q01DX005 (ip), vehicle: Klucel (hydroxypropylcellulose) (HPC)) was 357 % of control, the T/C (dose: 5.0 mg/kg/injection, schedule: Q01DX001 (ip), vehicle: DMSO) was 112 % of control and the T/C (dose: 6.0 mg/kg/injection, schedule: Q01DX005 (ip), vehicle: suspension in saline) was 262 % of control and 267 % of control. For the same compound, the T/C (dose: 7.2 mg/kg/injection, schedule: Q01DX001 (ip), vehicle: Klucel (hydroxypropylcellulose) (HPC)) was 187 % of control, the T/C (dose: 7.2 mg/kg/injection, schedule: Q01DX005 (ip), vehicle: Klucel (hydroxypropylcellulose) (HPC)) was 357 % of control and the T/C (dose: 8.0 mg/kg/injection, schedule: Q01DX001 (ip), vehicle: saline + alcohol) was 229 % of control. The T/C [1] was 274 % of control, the T/C (dose: 8.0 mg/kg/injection, schedule: Q01DX005 (ip), vehicle: saline with Tween-80) was 172 % of control and the T/C (dose: 8.0 mg/kg/injection, schedule: Q01DX005 (ip), vehicle: suspension in saline) was 205 % of control. The T/C (dose: 8.3 mg/kg/injection, schedule: Q01DX001 (ip), vehicle: DMSO) was 226 % of control, the T/C (dose: 10.0 mg/kg/injection, schedule: Q07DX003 (ip), vehicle: saline) was 175 % of control and the T/C (dose: 10.0 mg/kg/injection, schedule: Q07DX003 (ip), vehicle: suspension in saline) was 252 % of control. For the same compound, the T/C (dose: 12.0 mg/kg/injection, schedule: Q01DX001 (ip), vehicle: Klucel (hydroxypropylcellulose) (HPC)) was 363 % of control, the T/C (dose: 12.0 mg/kg/injection, schedule: Q01DX005 (ip), vehicle: Klucel (hydroxypropylcellulose) (HPC)) was 357 % of control and the T/C (dose: 13.8 mg/kg/injection, schedule: Q01DX001 (ip), vehicle: DMSO) was 367 % of control. The T/C (dose: 16.0 mg/kg/injection, schedule: Q01DX001 (ip), vehicle: saline + alcohol) was 324 % of control, the T/C (dose: 16.0 mg/kg/injection, schedule: Q01DX005 (ip), vehicle: saline with Tween-80) was 114 % of control and the T/C (dose: 20.0 mg/kg/injection, schedule: Q01DX001 (ip), vehicle: Klucel (hydroxypropylcellulose) (HPC)) was 363 % of control. The T/C (dose: 20.0 mg/kg/injection, schedule: Q07DX003 (ip), vehicle: saline) was 99 % of control, the T/C (dose: 20.0 mg/kg/injection, schedule: Q07DX003 (ip), vehicle: suspension in saline) was 252 % of control and the T/C (dose: 23.0 mg/kg/injection, schedule: Q01DX001 (ip), vehicle: DMSO) was 367 % of control. The T/C (dose: 32.0 mg/kg/injection, schedule: Q01DX001 (ip), vehicle: saline + alcohol) was 324 % of control, the T/C (dose: 32.0 mg/kg/injection, schedule: Q01DX001 (ip), vehicle: suspension in saline) was 120 % of control and the T/C (dose: 33.3 mg/kg/injection, schedule: Q01DX001 (ip), vehicle: Klucel (hydroxypropylcellulose) (HPC)) was 90 % of control. The T/C (dose: 38.4 mg/kg/injection, schedule: Q01DX001 (ip), vehicle: DMSO) was 366 % of control.
`C#C[C@]1(O)CC[C@H]2[C@@H]3CCc4cc(O)ccc4[C@H]3CC[C@@]21C` was tested, and the T/C [1] was 97 % of control and 103 % of control, the T/C (dose: 16.0 mg/kg/injection, schedule: Q01DX005 (ip), vehicle: Klucel (hydroxypropylcellulose) (HPC)) was 98 % of control and 109 % of control and the T/C (dose: 32.0 mg/kg/injection, schedule: Q01DX005 (ip), vehicle: Klucel (hydroxypropylcellulose) (HPC)) was 100 % of control and 106 % of control. For the same compound, the T/C (dose: 64.0 mg/kg/injection, schedule: Q01DX005 (ip), vehicle: Klucel (hydroxypropylcellulose) (HPC)) was 97 % of control and 119 % of control, the T/C (dose: 128.0 mg/kg/injection, schedule: Q01DX005 (ip), vehicle: Klucel (hydroxypropylcellulose) (HPC)) was 104 % of control and 107 % of control and the T/C (dose: 256.0 mg/kg/injection, schedule: Q01DX005 (ip), vehicle: Klucel (hydroxypropylcellulose) (HPC)) was 104 % of control and 124 % of control. For the same compound, the T/C (dose: 512.0 mg/kg/injection, schedule: Q01DX005 (ip), vehicle: Klucel (hydroxypropylcellulose) (HPC)) was 109 % of control and 111 % of control.
In the case of `CN1CCC23c4c5ccc(O)c4OC2C(O)C=CC3C1C5` (configuration not stated), the T/C (dose: 32.0 mg/kg/injection, schedule: Q01DX005 (ip), vehicle: saline) is reported as 112 % of control, the T/C (dose: 64.0 mg/kg/injection, schedule: Q01DX005 (ip), vehicle: saline) is reported as 101 % of control and the T/C [2] is reported as 99 % of control.
With `CN(C)C1=CC(=O)C(N(C)C)=CC1=O` the T/C (dose: 12.5 mg/kg/injection, schedule: Q01DX005 (ip), vehicle: saline) was 105 % of control, the T/C (dose: 25.0 mg/kg/injection, schedule: Q01DX005 (ip), vehicle: saline) was 101 % of control and the T/C (dose: 50.0 mg/kg/injection, schedule: Q01DX005 (ip), vehicle: saline) was 100 % of control. The T/C (dose: 100.0 mg/kg/injection, schedule: Q01DX005 (ip), vehicle: saline) was 97 % of control.
In the case of `Nc1nc2c(c(=O)[nH]1)N(C=O)C(CNc1ccc(C(=O)N[C@@H](CCC(=O)O)C(=O)O)cc1)CN2` (some centres not stated), the T/C (dose: 128.0 mg/kg/injection, schedule: Q01DX005 (ip), vehicle: saline with Tween-80) is reported as 101 % of control, the T/C [2] is reported as 104 % of control and the T/C (dose: 150.0 mg/kg/injection, schedule: Q04DX003 (ip), vehicle: saline) is reported as 104 % of control. For the same compound, the T/C (dose: 256.0 mg/kg/injection, schedule: Q01DX005 (ip), vehicle: saline with Tween-80) was 96 % of control, the T/C (dose: 256.0 mg/kg/injection, schedule: Q01DX005 (ip), vehicle: saline) was 98 % of control and the T/C (dose: 300.0 mg/kg/injection, schedule: Q04DX003 (ip), vehicle: saline) was 115 % of control. The T/C (dose: 512.0 mg/kg/injection, schedule: Q01DX005 (ip), vehicle: saline with Tween-80) was 101 % of control, the T/C (dose: 512.0 mg/kg/injection, schedule: Q01DX005 (ip), vehicle: saline) was 96 % of control and the T/C (dose: 600.0 mg/kg/injection, schedule: Q04DX003 (ip), vehicle: saline) was 101 % of control. For the same compound, the T/C (dose: 1200.0 mg/kg/injection, schedule: Q04DX003 (ip), vehicle: saline) was 115 % of control.
For `COc1nc(C(Cl)(Cl)Cl)c(Cl)c(OC)c1Cl`, the T/C (dose: 25.0 mg/kg/injection, schedule: Q01DX005 (ip), vehicle: Klucel (hydroxypropylcellulose) (HPC)) was 94 % of control, the T/C (dose: 50.0 mg/kg/injection, schedule: Q01DX005 (ip), vehicle: Klucel (hydroxypropylcellulose) (HPC)) was 107 % of control and the T/C (dose: 100.0 mg/kg/injection, schedule: Q01DX005 (ip), vehicle: Klucel (hydroxypropylcellulose) (HPC)) was 114 % of control.
In the case of `Nc1nc(=S)c2ncn(C3OC(COC(=O)c4ccccc4)C(OC(=O)c4ccccc4)C3OC(=O)c3ccccc3)c2[nH]1` (configuration not stated), the T/C (dose: 12.5 mg/kg/injection, schedule: Q01DX005 (ip), vehicle: saline with Tween-80) is reported as 100 % of control, the T/C (dose: 25.0 mg/kg/injection, schedule: Q01DX005 (ip), vehicle: saline with Tween-80) is reported as 100 % of control and the T/C (dose: 50.0 mg/kg/injection, schedule: Q01DX005 (ip), vehicle: saline with Tween-80) is reported as 105 % of control.
